Paper PMC12171682, “Saarvienin A—A Novel Glycopeptide with Potent Activity against Drug‐Resistant Bacteria” (Angewandte Chemie (International Ed. in English), 2025)
Values after ≈ are worked out from the molar mass of the structure shown. Like-named read-outs stand apart in the source and are kept apart here.

Tests used:
[1] = tested on: S. aureus Mu50 (MRSA/VISA); settings: broth microdilution, cation-adjusted Mueller-Hinton Broth II, ~4 × 10⁵ CFU/mL, 37 °C, 24 h, mean of three independent biological replicates, each in technical triplicate
E. coli K12 ΔacrB = settings: broth microdilution, cation-adjusted Mueller-Hinton Broth II, ~4 × 10⁵ CFU/mL, 37 °C, 24 h, mean of three independent biological replicates, each in technical triplicate
[2] = tested on: M. tuberculosis H37Ra ATCC 25177
[3] = tested on: E. faecium DSM 17050 (VRE, vanA positive); settings: broth microdilution, cation-adjusted Mueller-Hinton Broth II, ~4 × 10⁵ CFU/mL, 37 °C, 24 h; mean of three independent biological replicates, each in technical triplicate
S. aureus HG001‐DRSA = settings: daptomycin-resistant mutant of HG001; broth microdilution, cation-adjusted Mueller-Hinton Broth II, ~4 × 10⁵ CFU/mL, 37 °C, 24 h; mean of three independent biological replicates, each in technical triplicate
[4] = tested on: E. coli WO153 (AB1157, recJ asmB1, ΔtolC); settings: broth microdilution, cation-adjusted Mueller-Hinton Broth II, ~4 × 10⁵ CFU/mL, 37 °C, 24 h; mean of three independent biological replicates, each in technical triplicate
E. faecalis ATCC 29212 = settings: broth microdilution, 37 °C, 24 h
S. aureus N315 (MRSA) = settings: broth microdilution, cation-adjusted Mueller-Hinton Broth II, ~4 × 10⁵ CFU/mL, 37 °C, 24 h; mean of three independent biological replicates, each in technical triplicate
[5] = tested on: E. faecalis DSM 12956 (VRE, vanB positive); settings: broth microdilution, cation-adjusted Mueller-Hinton Broth II, ~4 × 10⁵ CFU/mL, 37 °C, 24 h; mean of three independent biological replicates, each in technical triplicate
[6] = tested on: vancomycin‐resistant E. faecium clinical isolates with reduced susceptibility to daptomycin (n = 26); settings: 24 h
E. coli K12 ΔtolC = settings: broth microdilution, cation-adjusted Mueller-Hinton Broth II, 37 °C, 24 h, mean of three independent biological replicates, each in technical triplicate
[7] = tested on: S. aureus DSM 11822 (MDR); settings: broth microdilution, cation-adjusted Mueller-Hinton Broth II, ~4 × 10⁵ CFU/mL, 37 °C, 24 h; mean of three independent biological replicates, each in technical triplicate

## CN[C@@]1(C)C[C@H](O[C@@H]2[C@H](O)C[C@H](O[C@H]3[C@H](C)O[C@@H](O[C@H]4[C@H](O[C@H]5[C@H](C)O[C@@H](Oc6ccc(C[C@@H](O)C(=O)N[C@H]7CNC(=O)NC[C@@H](C(=O)N[C@H](Cc8ccccc8)C(=O)O)NC(=O)[C@H]([C@H](C)c8c[nH]c9ccc(Cl)cc89)NC7=O)cc6)C[C@]5(C)N)O[C@@H](C)[C@H](O)[C@H]4O)C[C@]3(C)NC)O[C@H]2C)O[C@@H](C)[C@@H]1OC [Saarvienin A, saarvienin A]
[1]
  MIC, S. aureus Mu50 (MRSA/VISA): 1 mg/L (≈ 0.662 µM)
[1]; listed as 1
  MIC, S. aureus Mu50 (MRSA/VISA): 0.5 mg/L (≈ 0.331 µM)
E. coli K12 ΔacrB
  MIC, E. coli K12 ΔacrB: >64 mg/L
E. coli K12 ΔacrB; listed as 1
  MIC, E. coli K12 ΔacrB: non‐susceptible
[2]
  MIC, M. tuberculosis H37Ra ATCC 25177: 32 mg/L (≈ 21.2 µM)
[3]
  MIC, E. faecium DSM 17050 (VRE, vanA positive): 1 mg/L (≈ 0.662 µM)
S. aureus HG001‐DRSA
  MIC, S. aureus HG001‐DRSA: 1 mg/L (≈ 0.662 µM)
[4]
  MIC, E. coli WO153 (AB1157, recJ asmB1, ΔtolC): 2 mg/L (≈ 1.32 µM)
E. faecalis ATCC 29212; cation-adjusted Mueller-Hinton Broth II, ~4 × 10⁵ CFU/mL, mean of three independent biological replicates, each in technical triplicate
  MIC, E. faecalis ATCC29212: 2 mg/L (≈ 1.32 µM)
E. faecalis ATCC 29212; reference strain in Table S5, MHB II, daptomycin with 50 µg/mL Ca2+, mean of two independent experiments
  MIC, E. faecalis ATCC29212: 2 mg/L (≈ 1.32 µM)
S. aureus N315 (MRSA)
  MIC, S. aureus N315 (MRSA): 0.5 mg/L (≈ 0.331 µM)
[5]
  MIC, E. faecalis DSM 12956 (VRE, vanB positive): 1 mg/L (≈ 0.662 µM)
[6]
  MIC50: 0.5 mg/L (≈ 0.331 µM)
  MIC90: 0.5 mg/L (≈ 0.331 µM)
  MIC Range: 0.5 to 1 mg/L
  MIC, Enterococcus faecium isolate 1: 1 mg/L (≈ 0.662 µM)
  MIC, Enterococcus faecium isolate 2: 0.5 mg/L (≈ 0.331 µM)
  MIC, Enterococcus faecium isolate 3: 0.5 mg/L (≈ 0.331 µM)
  MIC, Enterococcus faecium isolate 4: 0.5 mg/L (≈ 0.331 µM)
  MIC, Enterococcus faecium isolate 5: 0.5 mg/L (≈ 0.331 µM)
  MIC, Enterococcus faecium isolate 6: 0.5 mg/L (≈ 0.331 µM)
  MIC, Enterococcus faecium isolate 7: 0.5 mg/L (≈ 0.331 µM)
  MIC, Enterococcus faecium isolate 8: 0.5 mg/L (≈ 0.331 µM)
  MIC, Enterococcus faecium isolate 9: 0.5 mg/L (≈ 0.331 µM)
  MIC, Enterococcus faecium isolate 10: 0.5 mg/L (≈ 0.331 µM)
  MIC, Enterococcus faecium isolate 11: 0.5 mg/L (≈ 0.331 µM)
  MIC, Enterococcus faecium isolate 12: 0.5 mg/L (≈ 0.331 µM)
  MIC, Enterococcus faecium isolate 13: 0.5 mg/L (≈ 0.331 µM)
  MIC, Enterococcus faecium isolate 14: 0.5 mg/L (≈ 0.331 µM)
  MIC, Enterococcus faecium isolate 15: 0.5 mg/L (≈ 0.331 µM)
  MIC, Enterococcus faecium isolate 16: 0.5 mg/L (≈ 0.331 µM)
  MIC, Enterococcus faecium isolate 17: 0.5 mg/L (≈ 0.331 µM)
  MIC, Enterococcus faecium isolate 18: 0.5 mg/L (≈ 0.331 µM)
  MIC, Enterococcus faecium isolate 19: 0.5 mg/L (≈ 0.331 µM)
  MIC, Enterococcus faecium isolate 20: 0.5 mg/L (≈ 0.331 µM)
  MIC, Enterococcus faecium isolate 21: 0.5 mg/L (≈ 0.331 µM)
  MIC, Enterococcus faecium isolate 22: 0.5 mg/L (≈ 0.331 µM)
  MIC, Enterococcus faecium isolate 23: 0.5 mg/L (≈ 0.331 µM)
  MIC, Enterococcus faecium isolate 24: 0.5 mg/L (≈ 0.331 µM)
  MIC, Enterococcus faecium isolate 25: 0.5 mg/L (≈ 0.331 µM)
  MIC, Enterococcus faecium isolate 26: 0.5 mg/L (≈ 0.331 µM)
E. coli K12 ΔtolC; co‐incubated with sub‐lethal concentrations of polymyxin B nonapeptide (PMBN)
  MIC, E. coli K12 ΔtolC (tolC‐deficient) + PMBN: 32 mg/L
E. coli K12 ΔtolC; without PMBN, ~4 × 10⁵ CFU/mL
  MIC, E. coli K12 ΔtolC: 64 mg/L (≈ 42.4 µM)
[7]
  MIC, S. aureus DSM 11822 (MDR): 0.5 mg/L (≈ 0.331 µM)
